Test system: SARS-CoV-2 VOC (Alpha, Beta, and Delta)
Assay: SARS-CoV2 VOC testing in Vero cells, standard plaque assay
Assay type: cell-based

Cc1cc(O)c2c(=O)c3c(O)cc(O)c4c5c(O)cc(O)c6c(=O)c7c(O)cc(C)c8c1c2c(c34)c(c78)c65 [Hypericin, hypericin]
drop of virus titers in comparison to DMSO-treated controls: 3-5 log steps

— patent EP4094756A1 (priority 2021, dated 2022)
